# According to ChEMBL document CHEMBL6182906, “Discovery, total synthesis, and biological evaluation of tyrcinnamins as antibacterial agents and tyrosinase activators” (Eur J Med Chem, 2025):
# The source made the active and inactive calls. The calls are words filed in the database; no cut-off is given here.
# Key:
# Escherichia coli = assay: Antibacterial activity against Escherichia coli ATCC8739 assessed as bacterial growth inhibition up to 100 uM incubated for 16 hrs by broth microdilution assay; format: functional, organism-based
# Bacillus subtilis = assay: Antibacterial activity against Bacillus subtilis ATCC6633 assessed as bacterial growth inhibition incubated for 16 hrs by broth microdilution assay; format: functional
# Staphylococcus aureus [1] = assay: Antibacterial activity against Staphylococcus aureus ATCC6538 assessed as bacterial growth inhibition incubated for 16 hrs by broth microdilution assay; format: functional
# Pseudomonas aeruginosa = assay: Antibacterial activity against Pseudomonas aeruginosa ATCC27853 assessed as bacterial growth inhibition up to 100 uM incubated for 16 hrs by broth microdilution assay; format: functional, organism-based
# HCT-116 = assay: Cytotoxicity against human HCT-116 cells at 100 uM incubated for 72 hrs by CCK8 assay; format: toxicity, cell-based; details: hct-116, 72 h
# L02 [2] = assay: Induction of apoptosis in human LO2 cells assessed as viable cells at 50 uM incubated for 48 hrs by Annexin V-FITC/PI staining based flow cytometry (reference value: 98.0 %); format: functional; details: read-out: Activity
# L02 [3] = assay: Induction of apoptosis in human LO2 cells assessed as late apoptotic cells at 100 uM incubated for 48 hrs by Annexin V-FITC/PI staining based flow cytometry (reference value: 0.044 %); format: functional
# [4] = Hemolytic activity against chicken erythrocytes up to 100 uM incubated for 1 hr by absorbance based assay; format: toxicity, cell-based, Gallus gallus, Erythrocyte; details: read-out: Activity
# [5] = biological target: T1, Mushroom tyrosinase (Agaricus bisporus) (UniProt O42713+Q00024+C7FF04+C7FF05); assay: Competitive binding affinity to mushroom tyrosinase at 0.1 mM in presence of 0.25 mM L-DOPA; format: protein assay
# Enterococcus faecium = assay: Antibacterial activity against Enterococcus faecium assessed as bacterial growth inhibition incubated for 16 hrs by broth microdilution assay; format: functional
# HaCaT = assay: Cytotoxicity against human HaCaT cells at 100 uM incubated for 72 hrs by CCK8 assay; format: toxicity, cell-based
# L02 [6] = assay: Cytotoxicity against human LO2 cells at 100 uM incubated for 72 hrs by CCK8 assay; format: toxicity, cell-based; details: l02, 72 h
# L02 [7] = assay: Induction of apoptosis in human LO2 cells assessed as viable cells at 100 uM incubated for 48 hrs by Annexin V-FITC/PI staining based flow cytometry (reference value: 98.0 %); format: functional; details: read-out: Activity
# L02 [8] = assay: Induction of apoptosis in human LO2 cells assessed as early apoptotic cells at 12.5 uM incubated for 48 hrs by Annexin V-FITC/PI staining based flow cytometry (reference value: 0.85 %); format: functional
# Staphylococcus aureus [9] = assay: Antibacterial activity against Staphylococcus aureus ATCC29213 assessed as bacterial growth inhibition incubated for 16 hrs by broth microdilution assay; format: functional
# L02 [10] = assay: Induction of apoptosis in human LO2 cells assessed as early apoptotic cells at 50 uM incubated for 48 hrs by Annexin V-FITC/PI staining based flow cytometry (reference value: 0.85 %); format: functional
# L02 [11] = assay: Induction of apoptosis in human LO2 cells assessed as necrotic cells at 100 uM incubated for 48 hrs by Annexin V-FITC/PI staining based flow cytometry (reference value: 1.12 %); format: functional
# Enterococcus faecalis = assay: Antibacterial activity against Enterococcus faecalis assessed as bacterial growth inhibition incubated for 16 hrs by broth microdilution assay; format: functional
# L02 [12] = assay: Induction of apoptosis in human LO2 cells assessed as late apoptotic cells at 50 uM incubated for 48 hrs by Annexin V-FITC/PI staining based flow cytometry (reference value: 0.044 %); format: functional
# [13] = tested on: Staphylococcus epidermidis; assay: Antibacterial activity against Staphylococcus epidermidis assessed as bacterial growth inhibition incubated for 16 hrs by broth microdilution assay; format: functional
# [14] = biological target: T1, Mushroom tyrosinase (Agaricus bisporus); assay: Inhibition of mushroom tyrosinase using L-DOPA as substrate up to 1 mM preincubated for 10 mins followed by substrate addition measured after 20 mins by absorbance based assay; format: protein assay; details: time 30.0 min
# L02 [15] = assay: Induction of apoptosis in human LO2 cells assessed as late apoptotic cells at 12.5 uM incubated for 48 hrs by Annexin V-FITC/PI staining based flow cytometry (reference value: 0.044 %); format: functional
# Staphylococcus aureus [16] = assay: Antibacterial activity against methicillin-resistant Staphylococcus aureus assessed as bacterial growth inhibition incubated for 16 hrs by broth microdilution assay; format: functional
# [17] = biological target: T1, Mushroom tyrosinase (Agaricus bisporus); assay: Activation of mushroom tyrosinase using L-DOPA as substrate at 1 mM preincubated for 10 mins followed by substrate addition measured after 20 mins by absorbance based assay; format: protein assay; details: filed as activator, time 30.0 min
# L02 [18] = assay: Induction of apoptosis in human LO2 cells assessed as viable cells at 12.5 uM incubated for 48 hrs by Annexin V-FITC/PI staining based flow cytometry (reference value: 98.0 %); format: functional; details: read-out: Activity
# [19] = biological target: T1, Mushroom tyrosinase (Agaricus bisporus); assay: Competitive binding affinity to mushroom tyrosinase at 0.5 to 1 mM in presence of 0.25 mM L-DOPA; format: protein assay; details: filed as activator, dose 0.5-1 mM
# L02 [20] = assay: Induction of apoptosis in human LO2 cells assessed as necrotic cells at 12.5 uM incubated for 48 hrs by Annexin V-FITC/PI staining based flow cytometry (reference value: 1.12 %); format: functional
# L02 [21] = assay: Induction of apoptosis in human LO2 cells assessed as necrotic cells at 50 uM incubated for 48 hrs by Annexin V-FITC/PI staining based flow cytometry (reference value: 1.12 %); format: functional
# L02 [22] = assay: Induction of apoptosis in human LO2 cells assessed as early apoptotic cells at 100 uM incubated for 48 hrs by Annexin V-FITC/PI staining based flow cytometry (reference value: 0.85 %); format: functional
# Staphylococcus aureus [23] = assay: Antibacterial activity against Staphylococcus aureus ATCC6538 assessed as bacterial growth inhibition at 100 uM incubated for 12 hrs by resazurin assay; format: functional, organism-based
# Staphylococcus aureus [24] = assay: Antibacterial activity against Staphylococcus aureus ATCC6538 assessed as bacterial growth inhibition at 100 uM incubated for 12 hrs by spot assay; format: functional, organism-based
# [25] = Hemolytic activity against chicken erythrocytes at 50 uM incubated for 1 hr by absorbance based assay; format: toxicity, cell-based, Gallus gallus, Erythrocyte; details: read-out: Activity
smiles,measurement,setting,value
CCC/C=C\c1ccccc1/C=C/C(=O)N[C@@H](C)C(=O)OC,inhibition,Escherichia coli,inactive
same,MIC,Bacillus subtilis,100 µM
same,MIC,Staphylococcus aureus [1],> 100 µM
same,inhibition,Pseudomonas aeruginosa,inactive
CCC/C=C\c1ccccc1/C=C/C(=O)N[C@@H](Cc1ccc(O)cc1)C(=O)OC,Activity,HCT-116,Non-toxic
same,viability at 50 µM,L02 [2],97.9%
same,Activity,L02 [3],0.034%
same,"hemolysis at 1 h, up to 100 µM",[4],< 5%
same,Activity,[5],inactive
same,MIC,Enterococcus faecium,20 µM
same,Activity,HaCaT,Non-toxic
same,Activity,L02 [6],Non-toxic
same,viability at 100 µM,L02 [7],97.7%
same,Activity,L02 [8],0.2%
same,MIC,Staphylococcus aureus [9],20 µM
same,Activity,L02 [10],0.74%
same,Activity,L02 [11],1.34%
same,MIC,Enterococcus faecalis,20 µM
same,Activity,L02 [12],0.024%
same,inhibition,Escherichia coli,inactive
same,MIC,[13],> 40 µM
same,MIC,Bacillus subtilis,12.5 µM
same,inhibition,[14],inactive
same,Activity,L02 [15],0.041%
same,MIC,Staphylococcus aureus [16],20 µM
same,Emax,[17],> 300%
same,viability at 12.5 µM,L02 [18],98.5%
same,Activity,[19],Active
same,Activity,L02 [20],1.23%
same,MIC,Staphylococcus aureus [1],12.5 µM
same,Activity,L02 [21],1.33%
same,Activity,L02 [22],0.94%
same,inhibition,Pseudomonas aeruginosa,inactive
CN[C@H](CC(C)C)C(=O)N[C@H]1C(=O)N[C@@H](CC(N)=O)C(=O)N[C@H]2C(=O)N[C@H]3C(=O)N[C@H](C(=O)N[C@H](C(=O)O)c4cc(O)cc(O)c4-c4cc3ccc4O)[C@H](O)c3ccc(c(Cl)c3)Oc3cc2cc(c3O[C@@H]2O[C@H](CO)[C@@H](O)[C@H](O)[C@H]2O[C@H]2C[C@](C)(N)[C@H](O)[C@H](C)O2)Oc2ccc(cc2Cl)[C@H]1O [VANCOMYCIN],MIC,Enterococcus faecium,2.8 µM
same,MIC,Staphylococcus aureus [9],1.4 µM
same,MIC,Enterococcus faecalis,2.8 µM
same,MIC,Staphylococcus aureus [16],2.8 µM
COC(=O)[C@H](Cc1ccc(O)cc1)NC(=O)/C=C/c1ccccc1Br,inhibition,Escherichia coli,inactive
same,MIC,Bacillus subtilis,100 µM
same,inhibition,[14],inactive
same,MIC,Staphylococcus aureus [1],100 µM
same,inhibition,Pseudomonas aeruginosa,inactive
COC(=O)[C@H](Cc1ccc(O)cc1)NC(=O)/C=C/c1ccccc1OC,inhibition,Escherichia coli,inactive
same,MIC,Bacillus subtilis,100 µM
same,inhibition,[14],Active
same,MIC,Staphylococcus aureus [1],100 µM
same,inhibition,Pseudomonas aeruginosa,inactive
CCC/C=C\c1ccccc1/C=C/C(=O)O,inhibition,Escherichia coli,inactive
same,MIC,Bacillus subtilis,> 100 µM
same,MIC,Staphylococcus aureus [1],> 100 µM
same,inhibition,Pseudomonas aeruginosa,inactive
CCC/C=C\c1ccccc1/C=C/C(=O)N[C@@H](Cc1ccccc1)C(=O)OC,inhibition,Escherichia coli,inactive
same,MIC,Bacillus subtilis,> 100 µM
same,MIC,Staphylococcus aureus [1],> 100 µM
same,inhibition,Pseudomonas aeruginosa,inactive
CCC/C=C\c1ccccc1/C=C/C(=O)N[C@H](Cc1ccc(O)cc1)C(=O)O,inhibition,Staphylococcus aureus [23],inactive
same,inhibition,Staphylococcus aureus [24],inactive
same,inhibition,Escherichia coli,inactive
same,MIC,Bacillus subtilis,> 100 µM
same,inhibition,[14],inactive
same,MIC,Staphylococcus aureus [1],> 100 µM
same,inhibition,Pseudomonas aeruginosa,inactive
CCC/C=C\c1ccccc1/C=C/C(=O)N[C@@H](Cc1c[nH]c2ccccc12)C(=O)OC,inhibition,Escherichia coli,inactive
same,MIC,Bacillus subtilis,> 100 µM
same,MIC,Staphylococcus aureus [1],> 100 µM
same,inhibition,Pseudomonas aeruginosa,inactive
COC(=O)[C@H](Cc1ccc(O)cc1)NC(=O)/C=C/c1ccccc1C(F)(F)F,inhibition,Escherichia coli,inactive
same,MIC,Bacillus subtilis,> 100 µM
same,inhibition,[14],inactive
same,MIC,Staphylococcus aureus [1],100 µM
same,inhibition,Pseudomonas aeruginosa,inactive
COC(=O)[C@H](Cc1ccc(O)cc1)NC(=O)/C=C/c1ccccc1C,inhibition,Escherichia coli,inactive
same,MIC,Bacillus subtilis,100 µM
same,inhibition,[14],inactive
same,Emax,[17],> 300%
same,MIC,Staphylococcus aureus [1],> 100 µM
same,inhibition,Pseudomonas aeruginosa,inactive
COC(=O)[C@H](Cc1ccc(O)cc1)NC(=O)/C=C/c1ccccc1,inhibition,Escherichia coli,inactive
same,MIC,Bacillus subtilis,> 100 µM
same,inhibition,[14],inactive
same,MIC,Staphylococcus aureus [1],> 100 µM
same,inhibition,Pseudomonas aeruginosa,inactive
CC1(C)S[C@@H]2[C@H](NC(=O)Cc3ccccc3)C(=O)N2[C@H]1C(=O)O [PENICILLIN G],MIC,Bacillus subtilis,10 µM
same,MIC,Staphylococcus aureus [1],0.05 µM
CCC/C=C\c1ccccc1/C=C/C(=O)N[C@@H](Cc1ccc(O)cc1)C(=O)O,inhibition,Staphylococcus aureus [23],inactive
same,inhibition,Staphylococcus aureus [24],inactive
same,inhibition,Escherichia coli,inactive
same,MIC,Bacillus subtilis,> 100 µM
same,inhibition,[14],inactive
same,MIC,Staphylococcus aureus [1],> 100 µM
same,inhibition,Pseudomonas aeruginosa,inactive
COC(=O)[C@H](Cc1ccc(O)cc1)NC(=O)/C=C/c1ccccc1F,inhibition,Escherichia coli,inactive
same,MIC,Bacillus subtilis,100 µM
same,inhibition,[14],inactive
same,MIC,Staphylococcus aureus [1],> 100 µM
same,inhibition,Pseudomonas aeruginosa,inactive
CCC/C=C\c1ccccc1/C=C/C(=O)N[C@H](Cc1ccc(O)cc1)C(=O)OC,Activity,HCT-116,Toxic
same,"hemolysis at 1 h, 50 µM",[25],> 5%
same,Activity,HaCaT,Toxic
same,Activity,L02 [6],Toxic
same,inhibition,Escherichia coli,inactive
same,MIC,Bacillus subtilis,12.5 µM
same,inhibition,[14],inactive
same,Emax,[17],> 300%
same,MIC,Staphylococcus aureus [1],12.5 µM
same,inhibition,Pseudomonas aeruginosa,inactive
